How the values were obtained:
[1] = target: T1, mSCD3 (Mus musculus, UniProt Q99PL7, V119A); assay: Conversion of saturated fatty acids to Δ9 monounsaturated fatty acids in ole1 yeast L8-14C expressing mSCD3 (GLC); assay type: cell-based; design: Cloning of the full-length human and mouse SCD cDNAs: The full coding region of human SCDs; expressed in transfected cells; host or cells: Saccharomyces cerevisiae L8-14C (ole1 disruptant), vector p426GPD; settings: for conversion of exogenous saturated fatty acid to Δ9 monounsaturated fatty acid: exogenous fatty acid 0.2 mM, 1% tergitol NP-40, yeast cultured 2 days (FIG. 2)
T1 sequence (Q99PL7 1-359 V119A): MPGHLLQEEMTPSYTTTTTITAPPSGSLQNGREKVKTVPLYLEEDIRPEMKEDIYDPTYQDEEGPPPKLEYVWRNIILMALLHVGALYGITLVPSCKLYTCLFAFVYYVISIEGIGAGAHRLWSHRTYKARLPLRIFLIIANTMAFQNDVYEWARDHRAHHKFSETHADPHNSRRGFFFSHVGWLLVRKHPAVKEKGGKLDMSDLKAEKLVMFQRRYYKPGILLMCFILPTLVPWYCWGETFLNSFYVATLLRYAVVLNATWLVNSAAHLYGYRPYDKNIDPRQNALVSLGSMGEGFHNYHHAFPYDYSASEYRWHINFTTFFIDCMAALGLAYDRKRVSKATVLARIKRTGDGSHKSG

[2] = target: T1, mSCD3; assay: Δ9-desaturase activity in microsomes of Hela cells over-expressing mSCD3; assay type: biochemical; design: Cloning of the full-length human and mouse SCD cDNAs: The full coding region of human SCDs; expressed in transfected cells; settings: Hela microsomes 100 μg, 14C-acyl-CoA, NADH (FIG. 3)

Structure (SMILES) | conversion of exogenous saturated fatty acid to Δ9 monounsaturated fatty acid [1] | also measured
CCCCCCCCCCCCC(=O)O [13:0, tridecanoic acid] | 32% | 
CCCCCCCCCCCCCC(=O)O [14:0, myristic acid] | more than 50% | 
CCCCCCCCCCCCCCCC(=O)SCCNC(=O)CCNC(=O)[C@H](O)C(C)(C)COP(=O)(O)OP(=O)(O)OC[C@H]1O[C@@H](n2cnc3c(N)ncnc32)[C@H](O)[C@@H]1OP(=O)(O)O [16:0-CoA, palmitoyl-CoA] |  | Δ9-desaturase activity towards 16:0-CoA relative to 18:0-CoA [2]: 16 fold
CCCCCCCCCCCCCCCC(=O)O [16:0] |  | % conversion of fatty acid to Δ9 monounsaturated fatty acid ([1]; endogenous fatty acid, L8-14C transformant, YPD lacking unsaturated fatty acids, 3 days): 49%
CCCCCCCCCCCCCCCCC(=O)O [17:0, heptadecanoic acid] | undetectable | 
CCCCCCCCCCCCCCCCCCCC(=O)O [C20:0, eicosanoic acid] | None of Δ9-desaturase was able to utilize | 

From patent publication US20060281071A1, “Stearoyl-CoA desaturase assay” (priority 2005, published 2006)
